We go through six molecules from patent US5731343A (The Scripps Research Institute, priority 1995, dated 1998).

Read-outs that look alike come from different tables or passages of the source.

One test relates to RAW 264.7. The following applies: Weinstein et al., cited from earlier work.
In the next test the test system is p53/56^lyn. Briefly: Western blot analysis of p53/56^lyn in LPS-stimulated macrophages. The test is classed as cell-based, rat. As to conditions: 4 hours pretreatment; LPS (10 μg/ml).
Test [1] relates to p60^v-src. As to conditions: cited from earlier work.
The subject of test [2] is p60^v-src. The following applies: Uehara et al. 1989; cited from earlier work.
Test [3] has as its system tyrosine phosphorylated proteins (Src family tyrosine kinases). Briefly: Antiphosphotyrosine immunoblotting of LPS-stimulated macrophages. The following applies: 4 hours pretreatment; LPS (10 μg/ml); rat alveolar macrophages. The class given is cell-based.
In the next test the test system is COX-2. Kind of test: Recovery of COX activity (COX-2 expression) in aspirin-pretreated rat alveolar macrophages. The test is classed as cell-based. The following applies: read-out: IC50 suppression of LPS-induced expression of COX-2.
The subject of a further test is c-raf. As to conditions: human T cells; June et al. 1990; cited from earlier work.
For another test, the target named is p60^c-src (Homo sapiens, UniProt P12931).
The test system of the next test is COX-2 mRNA. Kind of test: cells. As to conditions: Rattus norvegicus, Macrophage, 2 h, read-out: inhibition of COX-2 mRNA levels.
Test [4] deals with mitogen activated protein kinases (MAPK-1, MAPK-2 and p38). As to conditions: 4 hours pretreatment; LPS (1 μg/ml); RAW 264.7.
The subject of another test is tumor cells. As to conditions: U.S. Pat. Nos. 3,428,526 and 4,228,079; cited from earlier work.
The subject of test [5] is murine resident peritoneal macrophages. The following applies: stimulated with zymosan, calcium ionophore A23187, and PMA; Glaser et al.; cited from earlier work.
The subject of the next test is cyclooxygenase. The following applies: intact macrophages; Glaser et al. 1993; cited from earlier work.
The target in another test is T1, endogenous COX (Rattus norvegicus, UniProt Q63921).
T1 construct: endogenous in cells; host or cells: alveolar macrophages of Sprague-Dawley rats (bronchoalveolar lavage)
T1 sequence (Q63921 27-602): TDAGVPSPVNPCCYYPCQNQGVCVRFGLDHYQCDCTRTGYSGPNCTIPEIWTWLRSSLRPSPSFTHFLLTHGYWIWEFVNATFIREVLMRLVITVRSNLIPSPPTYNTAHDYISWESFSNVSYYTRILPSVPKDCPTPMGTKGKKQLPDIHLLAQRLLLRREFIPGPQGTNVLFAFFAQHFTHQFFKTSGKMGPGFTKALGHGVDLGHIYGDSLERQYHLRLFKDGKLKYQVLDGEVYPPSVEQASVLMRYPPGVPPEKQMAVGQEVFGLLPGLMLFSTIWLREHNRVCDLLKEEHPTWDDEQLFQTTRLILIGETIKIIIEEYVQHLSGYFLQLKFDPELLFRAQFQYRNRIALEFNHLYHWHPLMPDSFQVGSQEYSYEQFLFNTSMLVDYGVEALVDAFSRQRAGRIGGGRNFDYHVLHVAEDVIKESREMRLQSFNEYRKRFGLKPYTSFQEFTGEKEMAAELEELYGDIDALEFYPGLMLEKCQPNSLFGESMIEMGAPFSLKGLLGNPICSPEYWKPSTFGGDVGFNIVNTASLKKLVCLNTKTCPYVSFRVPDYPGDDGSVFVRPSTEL
Briefly: Inactivation of endogenous COX activity in macrophages by aspirin. The following applies: aspirin 500 μM, 2.5 hours. The test is classed as cell-based. From the text:
In the previous study using the same cell type, it was shown that increased COX activity in LPS-stimulated macrophages which were pretreated with aspirin, results from selective expression of COX-2 (Lee, et al., supra). Therefore, de novo synthesized COX-2 in aspirin-pretreated macrophages can be accurately and conveniently quantitated by measuring recovered COX activity.

Sequence of p60^c-src (P12931 whole entry): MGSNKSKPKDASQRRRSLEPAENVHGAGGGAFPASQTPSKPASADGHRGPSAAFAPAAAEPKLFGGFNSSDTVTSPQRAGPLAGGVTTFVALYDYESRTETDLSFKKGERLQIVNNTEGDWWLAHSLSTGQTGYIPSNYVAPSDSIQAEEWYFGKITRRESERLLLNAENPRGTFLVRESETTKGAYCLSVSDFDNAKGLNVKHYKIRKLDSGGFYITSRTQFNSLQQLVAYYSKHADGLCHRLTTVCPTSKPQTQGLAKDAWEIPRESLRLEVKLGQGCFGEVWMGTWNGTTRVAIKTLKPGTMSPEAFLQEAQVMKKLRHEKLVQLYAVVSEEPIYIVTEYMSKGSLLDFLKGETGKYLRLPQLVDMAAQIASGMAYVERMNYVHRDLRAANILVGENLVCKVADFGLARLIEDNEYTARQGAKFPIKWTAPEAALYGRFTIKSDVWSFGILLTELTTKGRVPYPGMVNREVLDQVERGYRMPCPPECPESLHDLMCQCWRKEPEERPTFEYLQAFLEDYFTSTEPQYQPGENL

`CO[C@H]1[C@@H](OC)C[C@H](C)[C@@H](OC)C2=CC(=O)C=C(NC(=O)/C(C)=C/C=C\[C@H](OC)[C@@H](OC(N)=O)/C(C)=C/[C@@H]1C)C2=O` [herbimycin A]: in the test on RAW 264.7 (LPS), the “LPS-induced release of [^3 H]-arachidonic acid metabolites” value is “dramatically inhibits”. Besides, the “PMA-induced release of [^3 H]-arachidonic acid metabolites” value in the test with RAW 264.7 (PMA) is “only weakly inhibits”. Also, the “levels of p53/56^lyn” value in the test with p53/56^lyn is “significant reduction levels of p53/56^lyn”. In addition, the half-maximal inhibitory concentration (IC50) was 12 µM in the test on p60^v-src [1] (Uehara et al. 1989, read-out: IC50 in vitro kinase activity) and 0.052 µM with COX-2. For the same molecule, the “inhibitory effect on p60^v-src kinase activity in presence of sulfhydryl compounds” value in the test on p60^v-src [1] (sulfhydryl compounds) is given as “abolished”. The “degradation of p60^v-src” value with p60^v-src [2] is “increased the degradation”. In addition, the “levels of tyrosine phosphorylated proteins” value in [3] was “suppressed levels of tyrosine phosphorylated proteins”. Further, the PMA-stimulated c-raf activity result in the test with c-raf is recorded as “resistant to the inhibitory effects”.

At p60^c-src, `C[C@@H]1C[C@H]2O[C@@H]2/C=C\C=C\C(=O)Cc2c(Cl)c(O)cc(O)c2C(=O)O1` [Radicicol, 5-chloro-6-(7,8-epoxy-10-hydroxy-2-oxo-3,5-undecadienyl)-β-resorcyclic acid μ-lactone] had an IC50 of 8.2 µM. In addition, in the test on COX-2 mRNA, the inhibition at 1 µg/mL amounted to 50%. For the same molecule, the “inhibition of p60^v-src” value with p60^v-src [1] (Kwon et al. 1992) is given as “inhibitor of p60^v-src”. In addition, the “inhibition of tyrosine phosphorylation of MAPKs” value in [4] is “inhibited tyrosine phosphorylation of MAPKs in a dose dependent fashion”. In the test on tumor cells, the “inhibitory effect in vitro on the growth of tumor cells” value is on record as “strong inhibitory effect”.

Regarding `O=c1c(-c2ccc(O)cc2)coc2cc(O)cc(O)c12` [genistein], the PGE2 production entry in test [5] is recorded as “inhibited”. Moreover, the IC50 with COX-2 was 22 µM. In the test with cyclooxygenase, the “inhibitory effect on cyclooxygenase activity” value was “no inhibitory effect”.

With `N#CC(=Cc1ccc(O)c(O)c1)C(=O)Nc1ccccc1` [tryphostin (AG-494)], in the test on COX-2 (LPS), the concentration for half-maximal inhibition (IC50) came out at 357 µM.

Turning to `N#CC(C#N)=Cc1cc(O)c(O)c(O)c1` [tyrphostin-25], the PGE2 production entry in [5] was “inhibited”. The “inhibitory effect on cyclooxygenase activity” value in the test on cyclooxygenase is given as “no inhibitory effect”.

At endogenous COX, `CC(=O)Oc1ccccc1C(=O)O` [aspirin] gave an inhibition at 500 µM above 90%.
